According to the NIST ThermoML archive (doi:10.1016/j.fluid.2017.03.015):
Numbers after ± are expanded uncertainties.

Settings: Crystal; visual observation

Compound | Normal melting temperature [°C]
C[n+]1ccn(CCO)c1.[Cl-] [1-(2-hydroxyethyl)-3-methyl-1H-imidazolium chloride] | 85.73 ± 0.41
CCCC[N+]1(C)CCCC1.[Cl-] [1-butyl-1-methylpyrrolidinium chloride] | 199.83 ± 0.41
CCn1cc[n+](C)c1.[Cl-] [1-ethyl-3-methylimidazolium chloride] | 77.27 ± 0.41
CCCCCCCCC(C[N+](C)(C)Cc1ccccc1)C(C)O.[Cl-] (stereo not given) [benzyldimethyl-2-(1-hydroxyethyl)decylammonium chloride] | 78.27 ± 0.41
CC(=O)[O-].C[N+](C)(C)CCO [choline acetate] | 89.47 ± 0.41
C[N+](C)(C)CCO.O=S(=O)([N-]S(=O)(=O)C(F)(F)F)C(F)(F)F [choline bis(trifluoromethylsulfonyl)imide] | 32.50 ± 0.41
CCCC(=O)[O-].C[N+](C)(C)CCO [choline butanoate] | 42.83 ± 0.41
CCC(=O)[O-].C[N+](C)(C)CCO [cholinium propanoate] | 9.42 ± 0.41
CCCC[N+](CCCC)(CCCC)CCCC.[Cl-] [tetrabutylammonium chloride] | 69.67 ± 0.41
CCCC[P+](CCCC)(CCCC)CCCC.[Cl-] [tetrabutylphosphonium chloride] | 66.31 ± 0.41
